Reference: ChEMBL document CHEMBL1142144, “Semimechanistic pharmacokinetic/pharmacodynamic model for assessment of activity of antibacterial agents from time-kill curve experiments” (2007)
In brackets after ≈: the same amount, converted by molar mass.

test system: Streptococcus pyogenes; test: Antibacterial activity against Streptococcus pyogenes M12 by time-kill curve assay; assay type: functional

SMILES	MIC
CO/N=C(\C(=O)N[C@@H]1C(=O)N2C(C(=O)O)=C(COC(N)=O)CS[C@H]12)c1ccco1 [CEFUROXIME]	0.0313 µg/mL (≈ 0.0738 µM)
CC[C@H]1OC(=O)[C@H](C)[C@@H](O[C@H]2C[C@@](C)(OC)[C@@H](O)[C@H](C)O2)[C@H](C)[C@@H](O[C@@H]2O[C@H](C)C[C@H](N(C)C)[C@H]2O)[C@](C)(O)C[C@@H](C)C(=O)[C@H](C)[C@@H](O)[C@]1(C)O [ERYTHROMYCIN]	0.125 µg/mL (≈ 0.17 µM)
COc1c(N2C[C@@H]3CCCN[C@@H]3C2)c(F)cc2c(=O)c(C(=O)O)cn(C3CC3)c12 [MOXIFLOXACIN]	0.125 µg/mL (≈ 0.311 µM)
CC1(C)S[C@@H]2[C@H](NC(=O)Cc3ccccc3)C(=O)N2[C@H]1C(=O)O [PENICILLIN G]	0.012 µg/mL (≈ 0.0359 µM)
CN[C@H](CC(C)C)C(=O)N[C@H]1C(=O)N[C@@H](CC(N)=O)C(=O)N[C@H]2C(=O)N[C@H]3C(=O)N[C@H](C(=O)N[C@H](C(=O)O)c4cc(O)cc(O)c4-c4cc3ccc4O)[C@H](O)c3ccc(c(Cl)c3)Oc3cc2cc(c3O[C@@H]2O[C@H](CO)[C@@H](O)[C@H](O)[C@H]2O[C@H]2C[C@](C)(N)[C@H](O)[C@H](C)O2)Oc2ccc(cc2Cl)[C@H]1O [VANCOMYCIN]	0.25 µg/mL (≈ 0.173 µM)
